Reference: US20160157483A1, “COMPOSITION FOR THE CLEANING AND PROTECTION OF TECHNICAL SURFACES” (aimecs GmbH, priority 2013, published 2016)

Columns and labels:
Streptococcus gordonii = assay: Antibacterial effect against Streptococcus gordonii, growth by change of optical density; assay type: cell-based; conditions: 5 mg in 6 well plates, 0 h vs 24 h, starting density 1.8; P/S 4%
Procedure: The microparticles loaded with totarol were then tested for their antibacterial effect against Streptococcus gordonii (S.G.). For this purpose, 5 mg of totarol-loaded microparticles were given into 6 well plates and covered with a solution of S.G. For comparison, 5 mg of unloaded microparticles, 5 mg of free totarol, pure medium (Schaedler Medium of the company BD), medium with S.G. and medium with S.G. and 4% P/S (penicillin streptomycin) as positive control were measured. By means of the change of the optical density the growth of S.G. was determined. The starting density of S.G. was 1.8. In FIG. 3 the measured results at zero hour (left columns) and after 24 hours (right columns) is shown.

human cells = conditions: cited from earlier work
Staphylococcus aureus [1] = assay: Growth of S. aureus in suspension, optical density at 600 nm; assay type: cell-based; conditions: dissolved in ethyl acetate, 6 hours of incubation
Procedure: The antibacterial effect on Staphylococcus aureus (S. aureus) of totarol and the microparticles loaded with totarol was tested in vitro in a further experiment. It was shown that a concentration of 0.1 mg/ml of totarol dissolved in ethyl acetate (EtAc) was sufficient to inhibit the growth of S. aureus in suspension after 6 hours of incubation.

Staphylococcus aureus [2] = assay: Soaked filter paper on agar plates with S. aureus, inhibition zone; assay type: cell-based; conditions: 24 hours at 37° C., compared with EtAc control
Procedure: The experiment was repeated with filter paper which was soaked with pure totarol, with microparticles loaded with totarol and with EtAc, and which was incubated on agar plates, onto which S. aureus was cultivated.

Staphylococcus aureus [3] = assay: S. aureus seeded onto agar plates, inhibition zone; assay type: cell-based; conditions: 1 mg pure totarol or 10 mg microparticles loaded with about 1 mg totarol, 24 hours at 37° C.
Procedure: In further experiments the S. aureus bacteria were seeded onto agar plates and treated with 1 mg of pure totarol, 10 mg of unloaded microparticles, and 10 mg of microparticles loaded with about 1 mg of totarol.

fresh human whole blood = assay: Hemocompatibility in whole blood according to ISO 10993-4; assay type: cell-based; conditions: 1 hour
Procedure: Finally in vitro tests were performed where totarol and microparticles loaded with totarol were brought into contact with whole blood. The effect on erythrozytes, platelets, leucozytes as well as the complement and coagulation cascade was examined.
The measurements were made according ISO 10993-4, in determining various markers with a central importance within the hemostatic system.
Shown are the means values and standard deviations (n=3).
Shown are the mean values and standard deviations (n=3).

[4] = tested on: multi-resistant Staphylococcus aureus (MRSA); conditions: cited from earlier work
bacteria = conditions: in vitro; cited from earlier work

Structure (SMILES): CC(C)c1c(O)ccc2c1CC[C@H]1C(C)(C)CCC[C@]21C [totarol, (4bS,8aS)-4b,8,8-Trimethyl-1-propan-2-yl-5,6,7,8a,9,10-hexahydrophenanthren-2-ol]
- reduction of the bacterial concentration (growth of S.G. by optical density) (Streptococcus gordonii): stronger reduction of the bacterial concentration than totarol-loaded microparticles
- concentration at which toxic and inhibits the growth of human cells (human cells): more than 5 μg/ml
- concentration sufficient to inhibit the growth of S. aureus in suspension (Staphylococcus aureus [1]): 0.1 mg/mL
- inhibition zone around the filter paper (Staphylococcus aureus [2]): clear inhibition zone
- inhibition zone on agar plates (Staphylococcus aureus [3]): clear inhibition zone
- effects on the hemostatic system (fresh human whole blood; 0.1 mg/ml totarol, 1 mg/ml totarol MP, vs control and unloaded microparticles): neither totarol nor the microparticles loaded with totarol have negative effects
- hemocompatibility (fresh human whole blood; blood contact): good hemocompatibility
- effectiveness against MRSA [4]: effective
- minimum concentration where totarol still has an antibacterial effect (bacteria): 2 µg/mL
